Molecules are shown by their SMILES.

We go through 30 compounds from ChEMBL document CHEMBL1681695, “Chroman and tetrahydroquinoline ureas as potent TRPV1 antagonists” (Bioorg Med Chem Lett, 2011).

The target of data set [1] is Transient receptor potential cation channel subfamily V member 1 (Homo sapiens, UniProt Q8NER1). Briefly: Antagonist activity at human TRPV1 assessed as inhibition of calcium influx. Type of data set: functional.
Data set [2] deals with CYP3A4 (Homo sapiens, UniProt P08684). The experiment in a line: Inhibition of CYP3A4 at 10 uM. Type of data set: ADME.
Sequence of CYP3A4 (P08684 whole entry): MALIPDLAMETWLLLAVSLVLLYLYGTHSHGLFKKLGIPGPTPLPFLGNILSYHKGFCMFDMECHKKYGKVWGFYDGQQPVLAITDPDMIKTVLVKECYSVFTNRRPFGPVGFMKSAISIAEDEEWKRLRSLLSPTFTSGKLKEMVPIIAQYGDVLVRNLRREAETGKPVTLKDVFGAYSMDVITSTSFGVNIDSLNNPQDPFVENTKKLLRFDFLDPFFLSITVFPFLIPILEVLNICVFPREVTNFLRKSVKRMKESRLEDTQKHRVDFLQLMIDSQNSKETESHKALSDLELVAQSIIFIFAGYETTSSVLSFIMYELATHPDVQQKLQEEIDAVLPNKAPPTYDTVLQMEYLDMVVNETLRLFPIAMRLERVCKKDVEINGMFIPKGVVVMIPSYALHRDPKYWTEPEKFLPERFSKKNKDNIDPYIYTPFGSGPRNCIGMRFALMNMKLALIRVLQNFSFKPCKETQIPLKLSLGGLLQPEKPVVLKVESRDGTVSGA
Data set [3] is described as follows: Ratio of drug uptake in brain to plasma in rat. Type of data set: ADME.
In data set [4] the test system is Rattus norvegicus. The experiment in a line: Analgesic activity in rat assessed as inhibition of capsaicin-induced acute pain at 30 umol/kg, po. Type of data set: functional.
For data set [5], the system named is Rattus norvegicus. The experiment in a line: Antihyperalgesic activity in po dosed rat assessed as inhibition of carrageenan-induced hyperalgesia. Format: functional.
In data set [6] the test system is Rattus norvegicus. The experiment in a line: Antihyperalgesic activity in po dosed rat assessed as inhibition of CFA-induced hyperalgesia. Type of data set: functional.
The test system of data set [7] is Rattus norvegicus. Briefly: Analgesic activity in rat assessed as inhibition of MIA-induced osteoarthritis pain at 30 umol/kg, po. Format: functional.

Sequence of Transient receptor potential cation channel subfamily V member 1 (Q8NER1 whole entry): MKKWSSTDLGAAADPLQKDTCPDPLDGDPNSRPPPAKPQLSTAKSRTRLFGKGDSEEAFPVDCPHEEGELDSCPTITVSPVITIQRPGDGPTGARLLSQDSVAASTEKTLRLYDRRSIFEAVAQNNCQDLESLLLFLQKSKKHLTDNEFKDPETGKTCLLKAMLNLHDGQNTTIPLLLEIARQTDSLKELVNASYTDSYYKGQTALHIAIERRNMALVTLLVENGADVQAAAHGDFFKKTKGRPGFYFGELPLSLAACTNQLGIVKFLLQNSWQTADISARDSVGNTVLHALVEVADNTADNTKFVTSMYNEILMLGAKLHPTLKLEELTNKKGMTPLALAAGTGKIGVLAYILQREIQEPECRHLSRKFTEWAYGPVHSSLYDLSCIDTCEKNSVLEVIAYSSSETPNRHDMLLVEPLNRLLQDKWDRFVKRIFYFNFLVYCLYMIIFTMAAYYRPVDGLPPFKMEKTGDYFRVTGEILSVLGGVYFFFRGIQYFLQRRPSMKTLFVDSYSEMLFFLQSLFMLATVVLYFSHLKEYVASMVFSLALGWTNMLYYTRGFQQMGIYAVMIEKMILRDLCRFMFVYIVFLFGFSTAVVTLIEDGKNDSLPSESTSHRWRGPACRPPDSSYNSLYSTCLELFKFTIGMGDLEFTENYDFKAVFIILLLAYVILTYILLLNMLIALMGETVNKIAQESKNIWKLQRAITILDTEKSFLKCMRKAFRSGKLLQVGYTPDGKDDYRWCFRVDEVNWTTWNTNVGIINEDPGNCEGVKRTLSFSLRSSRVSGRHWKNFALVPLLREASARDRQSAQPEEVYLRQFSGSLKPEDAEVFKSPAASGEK

In the case of `O=C(Nc1cccc2[nH]ncc12)NC1CCN(Cc2ccccc2)c2ccccc21` (stereo unspecified), the IC50 in data set [1] is 70 nM. For the same compound, 10 µM produced 94% inhibition in data set [2].

For the compound `CC(C)(C)c1cccc2c1OCCC2NC(=O)Nc1cccc2[nH]ncc12` (stereo unspecified), the IC50 in data set [1] worked out at 5 nM. In addition, in data set [3], the Kp is 0.42. In addition, the results for the inhibition in vivo at 30 µmol/kg in data set [4] and in data set [7] were 89% and 56%, respectively. Further, the ED50 in data set [5] is 10 µmol/kg; in data set [6], 15 µmol/kg.

As to `COc1ccc2c(c1)C(NC(=O)Nc1cccc3[nH]ncc13)CCN2C` (stereo unspecified), the IC50 in data set [1] came to 1380 nM. Besides, 10 µM produced 59% inhibition in data set [2].

As to `Cc1ccc2c(c1)C(NC(=O)Nc1cccc3[nH]ncc13)CCO2` (stereo unspecified), in data set [1], the IC50 was 933 nM.

`CN1CCC(NC(=O)Nc2cccc3[nH]ncc23)c2ccc(C(F)(F)F)cc21` (stereo unspecified) had an inhibition at 10 µM in data set [2] of 47%.

`CN1CCC(NC(=O)Nc2cccc3[nH]ncc23)c2cccc(C(C)(C)C)c21` (stereo unspecified): in data set [1], the IC50 was found to be 6 nM.

As for `O=C(Nc1cccc2[nH]ncc12)N[C@H]1CCOc2cc(C(F)(F)F)ccc21`, the IC50 in data set [1] was determined as 43 nM.

`O=C(Nc1cccc2[nH]ncc12)NC1CCOc2cc(OC(F)(F)F)ccc21` (stereo unspecified): in data set [1], the IC50 turned out to be 8 nM.

As to `COc1ccc2c(c1)C(NC(=O)Nc1cccc3[nH]ncc13)CCN2Cc1ccccc1` (stereo unspecified), in data set [1], the IC50 came out at 160 nM. This compound displayed an inhibition at 10 µM in data set [2] of 97%.

For `O=C(Nc1cccc2[nH]ncc12)NC1CCOc2c1cccc2N1CCOCC1` (stereo unspecified), the IC50 in data set [1] amounted to 110 nM.

As for `CN1CCC(NC(=O)Nc2cccc3[nH]ncc23)c2ccccc21` (stereo unspecified), the IC50 in data set [1] was 215 nM. In addition, the inhibition at 10 µM in data set [2] stood at 65%.

In the case of `CC(C)(C)c1ccc2c(c1)OCCC2NC(=O)Nc1cccc2[nH]ncc12` (stereo unspecified), the IC50 in data set [1] amounted to 43 nM.

In the case of `O=C(Nc1cccc2[nH]ncc12)NC1CCOc2ccccc21` (stereo unspecified), in data set [1], the IC50 turned out to be 234 nM.

Consider `CN1CCC(NC(=O)Nc2cccc3[nH]ncc23)c2ccc(F)cc21` (stereo unspecified), for which the IC50 in data set [1] stood at 34 nM. In data set [2], this compound yielded an inhibition at 10 µM of 66%.

Consider `O=C(Nc1cccc2[nH]ncc12)NC1CCOc2c1cccc2C(F)(F)F` (stereo unspecified), for which the half-inhibitory concentration (IC50) in data set [1] was found to be 5 nM.

Turning to `CC(C)(C)c1ccc2c(c1)OCC[C@H]2NC(=O)Nc1cccc2[nH]ncc12`, in data set [1], the IC50 amounted to 31 nM.

For the compound `CN1CCC(NC(=O)Nc2cccc3[nH]ncc23)c2ccc(C(C)(C)C)cc21` (stereo unspecified), in data set [1], the 50% inhibitory concentration (IC50) came out at 115 nM.

For the compound `CC(C)CCN1CCC(NC(=O)Nc2cccc3[nH]ncc23)c2cccc(Cl)c21` (stereo unspecified), the IC50 in data set [1] was found to be 11 nM.

With `O=C(Nc1cccc2[nH]ncc12)NC1CCOc2c1cccc2N1CCCCC1` (stereo unspecified), the IC50 in data set [1] is 16 nM.

For `O=C(Nc1cccc2[nH]ncc12)NC1CCOc2c(C3CCCCC3)cccc21` (stereo unspecified), in data set [1], the IC50 worked out at 15 nM.

Regarding `CC(C)(C)c1cccc2c1OCC[C@@H]2NC(=O)Nc1cccc2[nH]ncc12`, the half-maximal inhibitory concentration (IC50) in data set [1] worked out at 19 nM.

For the compound `O=C(Nc1cccc2[nH]ncc12)N[C@@H]1CCOc2cc(C(F)(F)F)ccc21`, the IC50 in data set [1] is 4 nM.

Take `O=C(Nc1cccc2[nH]ncc12)NC1CCOc2ccc(F)cc21` (stereo unspecified): the IC50 in data set [1] was found to be 718 nM.

For `COc1ccc2c(c1)C(NC(=O)Nc1cccc3[nH]ncc13)CCN2CC1CCCCC1` (stereo unspecified), the IC50 in data set [1] stood at 196 nM. Also, in data set [2], 10 µM produced 93% inhibition.

In the case of `CN1CCC(NC(=O)Nc2cccc3[nH]ncc23)c2cc(C(C)(C)C)ccc21` (stereo unspecified), in data set [1], the IC50 turned out to be 853 nM.

On to `CC(C)(C)c1ccc2c(c1)C(NC(=O)Nc1cccc3[nH]ncc13)CCN2Cc1ccccc1` (stereo unspecified), for which the IC50 in data set [1] was found to be 121 nM.

On to `O=C(Nc1cccc2[nH]ncc12)NC1CCN(Cc2ccccc2)c2ccc(F)cc21` (stereo unspecified), for which the IC50 in data set [1] came to 66 nM.

Regarding `O=C(Nc1cccc2[nH]ncc12)NC1CCOc2c(OC(F)(F)F)cccc21` (stereo unspecified), the 50% inhibitory concentration (IC50) in data set [1] is 5 nM.

Turning to `CC(C)(C)c1cccc2c1OCC[C@H]2NC(=O)Nc1cccc2[nH]ncc12`, the IC50 in data set [1] turned out to be 3 nM.

Consider `CC(C)(C)c1ccc2c(c1)OCC[C@@H]2NC(=O)Nc1cccc2[nH]ncc12`, for which, in data set [1], the half-inhibitory concentration (IC50) amounted to 1200 nM.

Broadly, the IC50 is the concentration at which inhibition is half-maximal. Usually inhibition stands for how much of the control response was suppressed. A high value points to strong suppression. As usually defined, the Kp is the ratio of the level in a tissue or fluid to that in plasma or blood. What is called inhibition in vivo is how much of the control response was suppressed. A word on the ED50: it is the midpoint of the dose-response relation.
